# Test results published in ChEMBL document CHEMBL4842345, “Design, synthesis and biological evaluation of tanshinone IIA-based analogues: Potent inhibitors of microtubule formation and angiogenesis” (Eur J Med Chem, 2021).
# Calls of active or inactive are those of the source. No cut-off for these calls is given here.
# Columns and labels:
# A549 [1] = experiment: Induction of apoptosis in human A549 cells assessed as activation of the initiator caspase-9 measured after 48 hrs by western blot analysis; assay type: functional, cell-based
# Tubulin (Homo sapiens) [2] = biological target: T1, Tubulin (Homo sapiens) (UniProt P68371+Q9H4B7+P0DPH7+P68366+Q13509+Q71U36+P04350+Q3ZCM7+P07437+P68363+Q9BQE3+Q6PEY2+Q13885+Q9BVA1+Q9BUF5); experiment: Induction of microtubule distruption in human A549 cells assessed as spindle shaped microtubule structure at 2.5 to 10 uM measured after 48 hrs by immunofluorescence based laser scanning confocal microscopic analysis; assay type: cell-based; settings: dose 2.5-10 µM
# A549 [3] = experiment: Antiproliferative activity against human A549 cells assessed as decrease in DNA synthesis at 2.5 to 10 uM by Edu incorporation assay; assay type: functional, cell-based; settings: dose 2.5-10 µM
# HUVEC [4] = experiment: Antivascular activity against HUVEC cells assessed as reduction in area covered by HUVECs measured after 6 hrs by imaging analysis; assay type: functional, cell-based; settings: Homo sapiens, dose 0.25-1 µM
# HUVEC [5] = experiment: Inhibition of cell migration in HUVEC cells assessed as decrease in closure of wound scratching measured after 48 hrs by wound healing assay; assay type: functional, cell-based; settings: Homo sapiens, dose 0.25-1 µM
# A549 [6] = experiment: Induction of cell cycle arrest in human A549 cells assessed as accumulation of cells at S phase at 10 uM measured after 48 hrs by flow cytometry analysis (Rvb= 24.5%); assay type: functional
# A549 [7] = experiment: Induction of cell cycle arrest in human A549 cells assessed as accumulation of cells at G1 phase at 2.5 uM measured after 48 hrs by flow cytometry analysis (Rvb= 60.29%); assay type: functional
# A549 [8] = experiment: Antiinvasive activity in human A549 cells assessed as decrease in number of migrated A549 cells at 0.5 to 2 uM measured after 48 hrs by crystal violet staining based transwell assay; assay type: functional, cell-based; settings: dose 0.5-2 µM
# A549 [9] = experiment: Induction of apoptosis in human A549 cells assessed as dead cells at 5 uM measured after 48 hrs by Annexin V-FITC/PI staining based flow cytometry analysis (Rvb= 0.67%); assay type: functional
# MGC-803 = experiment: Antiproliferative activity against human MGC-803 cells assessed as reduction in cell viability measured after 72 hrs by MTT assay; assay type: functional, cell-based; settings: MGC-803, 72 h
# A549 [10] = experiment: Induction of apoptosis in human A549 cells assessed as dead cells at 2.5 uM measured after 48 hrs by Annexin V-FITC/PI staining based flow cytometry analysis (Rvb= 0.67%); assay type: functional
# Tubulin (Homo sapiens) [11] = biological target: T1, Tubulin (Homo sapiens); experiment: Induction of microtubule distruption in human A549 cells assessed as reduction in number of living cells at 2.5 to 10 uM measured after 48 hrs by immunofluorescence based laser scanning confocal microscopic analysis; assay type: cell-based; settings: dose 2.5-10 µM
# Tubulin (Homo sapiens) [12] = biological target: T1, Tubulin (Homo sapiens); experiment: Inhibition of tubulin (unknown origin) polymerization assessed as decrease in fluorescence intensity at 12 uM by fluorescence based assay; assay type: protein-complex assay
# HeLa = experiment: Antiproliferative activity against human HeLa cells assessed as reduction in cell viability measured after 72 hrs by MTT assay; assay type: functional, cell-based
# Danio rerio [13] = species on record: Danio rerio; experiment: Antiangiogenic activity in transgenic Tg(flk:EGFP) zebra fish embryos assessed as reduction in number of intersegmental vessels measured at 30 hrs post fertilization by confocal fluorescence microscopy analysis; assay type: functional, organism-based; settings: dose 1-4 µM
# MCF7 = experiment: Antiproliferative activity against human MCF7 cells assessed as reduction in cell viability measured after 72 hrs by MTT assay; assay type: functional, cell-based; settings: MCF7, 72 h
# A549 [14] = experiment: Induction of cell cycle arrest in human A549 cells assessed as accumulation of cells at G1 phase at 10 uM measured after 48 hrs by flow cytometry analysis (Rvb= 60.29%); assay type: functional
# A549 [15] = experiment: Induction of apoptosis in human A549 cells assessed as early apoptotic cells at 10 uM measured after 48 hrs by Annexin V-FITC/PI staining based flow cytometry analysis (Rvb= 0.72%); assay type: functional
# A549 [16] = experiment: Induction of apoptosis in human A549 cells assessed as late apoptotic cells at 10 uM measured after 48 hrs by Annexin V-FITC/PI staining based flow cytometry analysis (Rvb= 1.47%); assay type: functional
# A549 [17] = experiment: Induction of apoptosis in human A549 cells assessed as live cells at 2.5 uM measured after 48 hrs by Annexin V-FITC/PI staining based flow cytometry analysis (Rvb= 97.1%); assay type: functional
# A549 [18] = experiment: Induction of cell cycle arrest in human A549 cells assessed as increase in number of cells accumulation at G2/M phase at 5 uM measured after 48 hrs by flow cytometry analysis (Rvb= 16.72%); assay type: functional
# A549 [19] = experiment: Induction of apoptosis in human A549 cells assessed as activation of executioner caspase-3 at 2.5 to 10 uM measured after 48 hrs by western blot analysis; assay type: functional, cell-based; settings: dose 2.5-10 µM
# HUVEC [20] = experiment: Inhibition of cell migration in HUVEC cells assessed as decrease in number of migrated endothelial cells at 0.25 to 1 uM measured after 48 hrs by crystal violet staining based transwell assay; assay type: functional; settings: Homo sapiens, dose 0.25-1 µM
# Tubulin (Homo sapiens) [21] = biological target: T1, Tubulin (Homo sapiens); experiment: Displacement of [3H]colchicine binding to tubulin (unknown origin); assay type: protein-complex assay
# A549 [22] = experiment: Induction of apoptosis in human A549 cells assessed as early apoptotic cells at 2.5 uM measured after 48 hrs by Annexin V-FITC/PI staining based flow cytometry analysis (Rvb= 0.72%); assay type: functional
# A549 [23] = experiment: Induction of apoptosis in human A549 cells assessed as late apoptotic cells at 2.5 uM measured after 48 hrs by Annexin V-FITC/PI staining based flow cytometry analysis (Rvb= 1.47%); assay type: functional
# A549 [24] = experiment: Induction of cell cycle arrest in human A549 cells assessed as increase in number of cells accumulation at G2/M phase at 2.5 uM measured after 48 hrs by flow cytometry analysis (Rvb= 16.72%); assay type: functional
# HUVEC [25] = experiment: Antiinvasive activity in HUVEC cells assessed as decrease in cell invasion at 0.25 to 1 uM measured after 48 hrs by crystal violet staining based transwell assay; assay type: functional; settings: Homo sapiens, dose 0.25-1 µM
# [26] = Intrinsic clearance in human liver microsome; assay type: ADME, microsomes; settings: microsomes
# A549 [27] = experiment: Induction of apoptosis in human A549 cells assessed as live cells at 5 uM measured after 48 hrs by Annexin V-FITC/PI staining based flow cytometry analysis (Rvb= 97.1%); assay type: functional
# Tubulin (Homo sapiens) [28] = biological target: T1, Tubulin (Homo sapiens); experiment: Induction of microtubule distruption in human A549 cells assessed as occurence of cell shrinkage at 2.5 to 10 uM measured after 48 hrs by immunofluorescence based laser scanning confocal microscopic analysis; settings: dose 2.5-10 µM
# A549 [29] = experiment: Induction of apoptosis in human A549 cells assessed as cleavage of PARP at 2.5 to 10 uM measured after 48 hrs by western blot analysis; assay type: functional, cell-based; settings: dose 2.5-10 µM
# [30] = Kinetic solubility of the compound at pH 2 by nephelometry; assay type: physicochemical; settings: buffer, read-out: Kinetic_solubility
# HUVEC [31] = experiment: Antivascular activity against HUVEC cells assessed as segment length measured after 6 hrs by imaging analysis; assay type: functional, cell-based; settings: Homo sapiens, dose 0.25-1 µM
# Danio rerio [32] = species on record: Danio rerio; experiment: Antiangiogenic activity in transgenic Tg(flk:EGFP) zebra fish embryos assessed as reduction in length of intersegmental vessels measured at 30 hrs post fertilization by confocal fluorescence microscopy analysis; assay type: functional, organism-based; settings: dose 1-4 µM
# A549 [33] = experiment: Induction of apoptosis in human A549 cells assessed as late apoptotic cells at 5 uM measured after 48 hrs by Annexin V-FITC/PI staining based flow cytometry analysis (Rvb= 1.47%); assay type: functional
smiles,measurement,setting,value
COc1ccc2c(c1)-c1occ(C)c1C(=O)C2=O,Activity,A549 [1],Dose-Dependent Effect
same,Activity,Tubulin (Homo sapiens) [2],inactive
same,Activity,A549 [3],Active
same,Activity,HUVEC [4],Dose-Dependent Effect
same,inhibition,HUVEC [5],Dose-Dependent Effect
same,Activity,A549 [6],13.48%
same,Activity,A549 [7],61.93%
same,Activity,A549 [8],Active
same,Activity,A549 [9],1.28%
same,IC50,MGC-803,840 nM
same,Activity,A549 [10],0.68%
same,Activity,Tubulin (Homo sapiens) [11],Active
same,inhibition,Tubulin (Homo sapiens) [12],Active
same,IC50,HeLa,280 nM
same,Activity,Danio rerio [13],Dose-Dependent Effect
same,IC50,MCF7,3160 nM
same,Activity,A549 [14],55.29%
same,Activity,A549 [15],80.2%
same,Activity,A549 [16],8.19%
same,Activity,A549 [17],94.5%
same,Activity,A549 [18],20%
same,Activity,A549 [19],Active
same,inhibition,HUVEC [20],Active
same,Activity,Tubulin (Homo sapiens) [21],Active
same,Activity,A549 [22],1.55%
same,Activity,A549 [23],3.28%
same,Activity,A549 [24],17.41%
same,Activity,HUVEC [25],Active
same,CLH,[26],175 µL/min/mg
same,Activity,A549 [27],82.8%
same,Activity,Tubulin (Homo sapiens) [28],Active
same,Activity,A549 [29],Active
same,solubility kinetic,[30],250 µg/mL
same,Activity,HUVEC [31],Dose-Dependent Effect
same,Activity,Danio rerio [32],Dose-Dependent Effect
same,Activity,A549 [33],5.58%
